According to patent US10919941B2, “Functional lipid constructs” (KODE BIOTECH LIMITED, priority 2007, dated 2021):
No end group written: not given here.

Columns and labels:
[1] = system: TAP1 serum (Taiwan Miltenberger antibody positive sample); test: Anti-MUT serum (TAP1) reactivity of modified RBCs (saline and AHG); format: cell-based, human; design: key: 0 or ‘−’ no agglutination; 0 or ‘−’ no agglutination; 1+ or 3=very weak agglutination; 1+ or 3=very weak agglutination; 2+ or 5=weak agglutination; 2+ or 5=weak agglutination; 3+ or 8=moderate strong agglutination; 3+ or 8=moderate strong agglutination; 4+ or 10/12=strong agglutination; 4+ or 10/12=strong agglutination; 4+ or 10/12=strong agglutination
Method: (§1) The suspensions are either: • 1. incubated for 2 hours at 37° C. before being washed and suspended in a cell medium for serological analysis at a concentration of 0.8 to 3% (Method 1); or • 2. incubated for 3 to 4 hours at room temperature (circa 25° C.) followed by 18 hours at 4° C. before being washed and suspended in a cell medium for serological analysis at a concentration of 0.8 to 3% (Method 2).
(§2) Serological reactions are graded or scored by either of two established systems (0 or ‘−’ no agglutination, 1+ or 3=very weak agglutination, 2+ or 5=weak agglutination, 3+ or 8=moderate strong agglutination, 4+ or 10/12=strong agglutination)

[2] = system: natural Mi III antibody reactive human serums; test: Positive serum reactivity of modified RBCs in the field; format: cell-based; design: key: 0 or ‘−’ no agglutination; 0 or ‘−’ no agglutination; 1+ or 3=very weak agglutination; 1+ or 3=very weak agglutination; 2+ or 5=weak agglutination; 2+ or 5=weak agglutination; 3+ or 8=moderate strong agglutination; 3+ or 8=moderate strong agglutination; 4+ or 10/12=strong agglutination; 4+ or 10/12=strong agglutination; 4+ or 10/12=strong agglutination; conditions: 22 at 50, 17 and 24 at 200 μg/ml; 3 h RT then 18 h 4° C.
Method: as §1, §2

[3] = system: Miltenberger Antibody Positive Panel; test: Reactivity of modified RBCs against the Miltenberger Antibody Positive Panel; format: cell-based, human; design: key to score vs panel 15 TAP2 / score vs panel 4 T7202 / score vs panel 8 T5896 / score vs panel 2 T217 / score vs panel 3 T165 / score vs panel 14 TAP1 / score vs panel 10 Mia / score vs panel 11 Mur / score vs panel 12 Gam / score vs panel 6 T6025 / score vs panel 7 T8445 / score vs panel 9 MIII / score vs panel 13 BoxH / reactivity with Panel Serum #7 (T8445) / agglutination score, Panel Serum #7 (T8445): 0 or ‘−’ no agglutination; 0 or ‘−’ no agglutination; 1+ or 3=very weak agglutination; 1+ or 3=very weak agglutination; 2+ or 5=weak agglutination; 2+ or 5=weak agglutination; 3+ or 8=moderate strong agglutination; 3+ or 8=moderate strong agglutination; 4+ or 10/12=strong agglutination; 4+ or 10/12=strong agglutination; 4+ or 10/12=strong agglutination
antibody negative serums = test: False positive reactions of modified RBCs with antibody negative serums/plasma; format: cell-based, human; design: key to Reaction score BioVue AHG, PAC samples 1-46, 49, 50, 52, 53 / Reaction score BioVue AHG, PAC sample 47 / Reaction score BioVue AHG, PAC sample 48 / Reaction score BioVue AHG, PAC sample 51 / agglutination score, T series serum 2 / agglutination score, T series serum 42 / agglutination score, T series serum 63 / agglutination score, T series serum 62 / agglutination score, T series serum 7 / agglutination score, T series serum 20 / agglutination score, T series serum 48 / agglutination score, T series serum 22 / agglutination score, T series serum 39 / agglutination score, T series serum 23 / agglutination score, T series serum 30 / agglutination score, T series serum 4 / agglutination score, T series serum 31 / agglutination score, T series serum 44 / agglutination score, T series serum 61 / agglutination score, T series serum 18 / agglutination score, T series serum 21 / agglutination score, T series serum 28 / agglutination score, T series serum 55 / agglutination score, false positive serum T18 / agglutination score, false positive serum T21 / agglutination score, false positive serum T28 / agglutination score, false positive serum T55 / agglutination score, false positive serum T78 / agglutination score, false positive serum T92: 0 or ‘−’ no agglutination; 0 or ‘−’ no agglutination; 1+ or 3=very weak agglutination; 1+ or 3=very weak agglutination; 2+ or 5=weak agglutination; 2+ or 5=weak agglutination; 3+ or 8=moderate strong agglutination; 3+ or 8=moderate strong agglutination; 4+ or 10/12=strong agglutination; 4+ or 10/12=strong agglutination; 4+ or 10/12=strong agglutination
[4] = system: Miltenberger antibody positive sera; test: BioVue AHG card column agglutination serology of modified red blood cells; format: cell-based, human; design: key: 0 or ‘−’ no agglutination; 0 or ‘−’ no agglutination; 1+ or 3=very weak agglutination; 1+ or 3=very weak agglutination; 2+ or 5=weak agglutination; 2+ or 5=weak agglutination; 3+ or 8=moderate strong agglutination; 3+ or 8=moderate strong agglutination; 4+ or 10/12=strong agglutination; 4+ or 10/12=strong agglutination; 4+ or 10/12=strong agglutination; conditions: construct 50 μg/ml
Method: Red blood cells are modified by mixing 1 part by volume of washed packed red blood cells with 1 part by volume of peptide-lipid construct dispersed at a concentration of 10 to 1000 pg/ml in cell media (Celpresol™).
as §1, §2
Serological platforms used are Tube (addition of reagents and reactants into plastic or glass serology tubes and after appropriate incubations, washing and centrifugation observing reactions macroscopically by eye and a 10× magnification eyepiece and scoring) and BioVue™ (addition of reactants into cassettes containing beads (including some reactants) and after appropriate incubations and centrifugation observing the reaction patterns trapped within the Gel matrix). BioVue is the serological column agglutination platform of Ortho-Clinical Diagnostics. Diamed is the serological column agglutination platform of Diamed AG.

[5] = cells modified at 50 μg/ml, 2 hour 37° C., BioVue AHG cards
[6] = construct 50 μg/ml (2 hours, 37° C.)
[7] = larger series = 102, cells modified at 50 μg/ml, 2 hour 37° C., BioVue AHG cards

Substance: M17: DOPE peptide-lipid construct: Mur peptide TYPAHTANEV, leader c, spacer CMG(2) (TYPAHTANEVC; also: DOPE peptide-lipid construct via leader Cys, spacer CMG(2))
- TAP 1 Serum, AHG score ([1]; construct 50 μg/ml): 0
- TAP 1 Serum, Saline score ([1]; construct 50 μg/ml): 0
- score vs Mi III reactive serum 912485657-9 [2]: 3
- score vs Mi III reactive serum 914146821-8 [2]: 10
- score vs Mi III reactive serum 922390844-5 [2]: 12
- score vs Mi III reactive serum 926190919-0 [2]: 3
- score vs Mi III reactive serum 926555294-1 [2]: 0
- score vs Mi III reactive serum 927175131-4 [2]: 0
- score vs Mi III reactive serum 927299700-1 [2]: 0
- score vs Mi III reactive serum 927516053-2 [2]: 0
- score vs Mi III reactive serum 927619701-8 [2]: 3
- score vs Mi III reactive serum 932360876-4 [2]: 0
- score vs Mi III reactive serum 932467774-5 [2]: 0
- score vs Mi III reactive serum 932809044-1 [2]: 8
- score vs Mi III reactive serum 942223755-1 [2]: 5
- score vs Mi III reactive serum 942404708-4 (row interpreted Mur) [2]: 5
- score vs Mi III reactive serum 942404708-4 (row interpreted other) [2]: 0
- score vs Mi III reactive serum 942421413-0 [2]: 5
- score vs Mi III reactive serum 942423002-4 [2]: 0
- score vs Mi III reactive serum 942433813-3 [2]: 8
- score vs Mi III reactive serum 942433855-3 [2]: 8
- score vs Mi III reactive serum 942442720-2 [2]: 5
- score vs Mi III reactive serum 942448627-8 [2]: 0
- score vs Mi III reactive serum 942753165-4 [2]: 8
- score vs Mi III reactive serum 942762589-1 [2]: 0
- score vs Mi III reactive serum 9322338631 [2]: 10
- score vs Mi III reactive serum 9325490091 [2]: 5
- score vs Mi III reactive serum 9327986660 [2]: 3
- score vs Mi III reactive serum 9328118428 [2]: 10
- score vs Mi III reactive serum 9328154853 [2]: 10
- score vs Mi III reactive serum 9328791834 [2]: 3
- score vs Mi III reactive serum 9424248012 [2]: 0
- score vs Mi III reactive serum 9424292604 [2]: 8
- score vs Mi III reactive serum 9424396133 [2]: 0
- score vs Mi III reactive serum 9425256505 [2]: 8
- score vs Mi III reactive serum 9427455417 [2]: 5
- score vs Mi III reactive serum 9427613497 [2]: 0
- score vs Mi III reactive serum 9427615156 [2]: 0
- score vs Mi III reactive serum S-3 [2]: 3
- score vs panel 2 T217 ([3]; Table 9, construct 100 μg/ml): 0
- score vs panel 3 T165 ([3]; Table 9, construct 100 μg/ml): 10
- score vs panel 4 T7202 ([3]; Table 9, construct 100 μg/ml): 8
- score vs panel 6 T6025 ([3]; Table 9, construct 100 μg/ml): 10
- score vs panel 7 T8445 ([3]; Table 9, construct 100 μg/ml): 10
- score vs panel 8 T5896 ([3]; Table 9, construct 100 μg/ml): 0
- score vs panel 9 MIII ([3]; Table 9, construct 100 μg/ml): 0
- score vs panel 10 Mia ([3]; Table 9, construct 100 μg/ml): 0
- score vs panel 11 Mur ([3]; Table 9, construct 100 μg/ml): 0
- score vs panel 12 Gam ([3]; Table 9, construct 100 μg/ml): 0
- score vs panel 15 TAP2 ([3]; Table 9, construct 100 μg/ml): 0
- agglutination score, Panel Serum #7 (T8445) [3, 5]: 10
- reactivity with Panel Serum #7 (T8445) [3, 6]: 10
- % positive (antibody negative serums; T series reactives (n = 58), BioVue AHG cards): 33%
- agglutination score, T series serum 2 (antibody negative serums; [5]): 10
- agglutination score, T series serum 4 (antibody negative serums; [5]): 8
- agglutination score, T series serum 7 (antibody negative serums; [5]): 8
- agglutination score, T series serum 18 (antibody negative serums; [5]): 12
- agglutination score, T series serum 20 (antibody negative serums; [5]): 8
- agglutination score, T series serum 21 (antibody negative serums; [5]): 12
- agglutination score, T series serum 22 (antibody negative serums; [5]): 8
- agglutination score, T series serum 23 (antibody negative serums; [5]): 3
- agglutination score, T series serum 28 (antibody negative serums; [5]): 12
- agglutination score, T series serum 30 (antibody negative serums; [5]): 3
- agglutination score, T series serum 31 (antibody negative serums; [5]): 8
- agglutination score, T series serum 39 (antibody negative serums; [5]): 5
- agglutination score, T series serum 42 (antibody negative serums; [5]): 10
- agglutination score, T series serum 44 (antibody negative serums; [5]): 10
- agglutination score, T series serum 48 (antibody negative serums; [5]): 8
- agglutination score, T series serum 55 (antibody negative serums; [5]): 12
- agglutination score, T series serum 61 (antibody negative serums; [5]): 10
- agglutination score, T series serum 62 (antibody negative serums; [5]): 8
- agglutination score, T series serum 63 (antibody negative serums; [5]): 10
- agglutination score, false positive serum T18 (antibody negative serums; [7]): 12
- agglutination score, false positive serum T21 (antibody negative serums; [7]): 12
- agglutination score, false positive serum T28 (antibody negative serums; [7]): 12
- agglutination score, false positive serum T55 (antibody negative serums; [7]): 12
- agglutination score, false positive serum T78 (antibody negative serums; [7]): 12
- agglutination score, false positive serum T92 (antibody negative serums; [7]): 12
- number of negative serums with score 0 (antibody negative serums; n = 102 negative serum samples): 65
- number of negative serums with score 3 (antibody negative serums; n = 102 negative serum samples): 3
- number of negative serums with score 8-5 (antibody negative serums; n = 102 negative serum samples): 18
- number of negative serums with score 12-10 (antibody negative serums; n = 102 negative serum samples): 17
- share of negative serums with score 0 (antibody negative serums; n = 102 negative serum samples): 64%
- share of negative serums with score 3 (antibody negative serums; n = 102 negative serum samples): 3%
- share of negative serums with score 8-5 (antibody negative serums; n = 102 negative serum samples): 18%
- share of negative serums with score 12-10 (antibody negative serums; n = 102 negative serum samples): 17%

Substance: M33: DOPE peptide-lipid construct: MUTK peptide QTNDKHKRDTY, leader c, spacer CMG(2) (QTNDKHKRDTYC; also: DOPE peptide-lipid construct via leader Cys, spacer CMG(2))
- Reactivity with anti-MUT serum TAP1 [1, 6]: 3
- BioVue score vs TAP1 [4]: 3
- BioVue score vs positive sample 2 T217 (T) [4]: 0
- BioVue score vs positive sample 3 T165 (Mur) [4]: 0
- BioVue score vs positive sample 4 T7202 (M) [4]: 0
- BioVue score vs positive sample 8 T5896 (M + K + Mur) [4]: 0
- score vs panel 2 T217 ([3]; Table 8, construct 50 μg/ml): 0
- score vs panel 3 T165 ([3]; Table 8, construct 50 μg/ml): 0
- score vs panel 4 T7202 ([3]; Table 8, construct 50 μg/ml): 0
- score vs panel 8 T5896 ([3]; Table 8, construct 50 μg/ml): 0
- score vs panel 14 TAP1 ([3]; Table 8, construct 50 μg/ml): 8
- score vs panel 15 TAP2 ([3]; Table 8, construct 50 μg/ml): 0
